What all share (experiment): inhibition of tumour cell growth, NCI panel, 48 h
The subject of assay [1] is 786-0.
Assay [2] relates to A549.
The test system of assay [3] is ACHN.
For assay [4], the system named is HCT-116.
The test system of assay [5] is HCT-15.
The subject of assay [6] is HOP-62.
Assay [7] relates to HOP-92.
The subject of assay [8] is KM12.
Assay [9] concerns Malme-3M.
Assay [10] deals with NCI-H23.
Assay [11] deals with OVCAR-3.
The test system of assay [12] is OVCAR-4.
The test system of assay [13] is OVCAR-8.
Assay [14] relates to SK-MEL-28.
Assay [15] has as its system SK-MEL-5.
Assay [16] relates to SK-OV-3.
The subject of assay [17] is SN12C.
Assay [18] has as its system SNB-75.
The test system of assay [19] is UACC-257.
For assay [20], the system named is UACC-62.

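Following 48 hours of exposure in 96-well plates, responses at five concentrations were used to interpolate endpoints linearly. At the GI50, growth is halved.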 Active and inactive are the calls of the source. No stated cut-off is given here; in the data, active = GI50 up to about 1.1 µM and inactive = higher. Starred links: 1 amine or outer side, 2 acyl side, 3 side chain; linkers in the order of their positions; H or OH if unused. Positions of bridges follow the written chain, without caps; N, C: chain ends. Non-standard residues stand in square brackets, D forms with d. Residues, ends and D or L forms follow the SMILES beside them. ξ: configuration not given here. X11 = CCC(C)C(N[*:1])C(O)CC(=O)O[C@H](C(=O)C(C)C(=O)[*:2])C(C)C; X10 = O=C([C@@H]1CC(O)CN1[*:1])[*:2]; NMeY = CN[C@@H](Cc1ccc(O)cc1)C(=O)O; ξNMeL = CNC(CC(C)C)C(=O)O; ξT = CC(O)C(N)C(=O)O Where only a bound is given, the exact number is not on record here.

In the case of `CC#C[C@@]1(O)CCCC[C@@H]1O`, the GI50 is > 100 µM (inactive) in assay [1]; > 100 µM (inactive) in [2]; > 100 µM (inactive) in [3]; > 100 µM (inactive) in assay [4]; more than 100 µM in assay [5]; > 100 µM (inactive) in [6]. Besides, the GI50 in assay [7], in assay [8], in [9], in assay [10], in [11] and in assay [12] was > 100 µM (inactive) in each case. Moreover, the GI50 in assay [13], in assay [14], in assay [15], in assay [16], in [17] and in assay [18] was > 100 µM (inactive) throughout. Also, the GI50 in assay [19] and in [20] was > 100 µM (inactive) each time.

In the case of `O=c1[nH]c2cc(C(F)(F)F)ccc2nc1C(F)(F)F`, the GI50 is 37 µM (inactive) in [1]; 32.6 µM (inactive) in assay [2]; 37.3 µM (inactive) in assay [3]; 27.5 µM (inactive) in assay [4]; 37.2 µM in assay [5]; 18.2 µM (inactive) in assay [6]. For the same molecule, the GI50 in assay [7] was 16.6 µM (inactive); in assay [8], 23.7 µM (inactive); in [9] it was 35.2 µM (inactive); in assay [10], 27.2 µM (inactive); in assay [11], 18.5 µM (inactive); in assay [12], 51.5 µM (inactive). Besides, the GI50 was 36 µM (inactive) in [13]; 68.9 µM (inactive) in assay [14]; 13.8 µM (inactive) in [15]; 30.4 µM (inactive) in [16]; 29.7 µM (inactive) in assay [17]; 30.2 µM (inactive) in assay [18]. In addition, the GI50 is 27.6 µM (inactive) in assay [19] and 43.2 µM (inactive) in assay [20].

Turning to `CN(/N=C/c1cccc2cccnc12)c1ccc([N+](=O)[O-])cc1[N+](=O)[O-]`, the GI50 was 13.3 µM (inactive) in [1]; 48.5 µM (inactive) in assay [2]; 22 µM (inactive) in [3]; 35.1 µM (inactive) in assay [4]; 63 µM in assay [5]; 8.61 µM (inactive) in assay [6]. The GI50 in assay [7] is 14.8 µM (inactive); in assay [8], > 100 µM (inactive); in [9], 18.2 µM (inactive); in assay [10], 24.5 µM (inactive); in assay [11], 16.4 µM (inactive); in assay [12], 20.7 µM (inactive). For the same molecule, the GI50 is 32.7 µM (inactive) in assay [13]; > 88.1 µM (inactive) in [14]; 52.5 µM (inactive) in [15]; 20.6 µM (inactive) in assay [16]; 46.1 µM (inactive) in assay [17]; 10.1 µM (inactive) in assay [18]. Also, the GI50 in assay [19] was 82 µM (inactive); in assay [20], 25.1 µM (inactive).

Take `Fc1cccc(CSc2ncnc3c2ncn3C2CCCS2)c1` (stereo not given): the GI50 in assay [1] was 20.7 µM (inactive); in assay [2], 20.1 µM (inactive); in assay [3] it was 16.9 µM (inactive); in assay [4], 8.34 µM (inactive); in assay [5], 8.51 µM; in [6], 17.6 µM (inactive). The GI50 in [7] is 24.2 µM (inactive); in assay [8], 15.4 µM (inactive); in [9], 21 µM (inactive); in assay [10], 23.9 µM (inactive); in [11], 17.4 µM (inactive); in assay [12], 23.4 µM (inactive). For the same molecule, the GI50 in assay [13] is 20.8 µM (inactive); in assay [14] it was 18.9 µM (inactive); in [15], 10.5 µM (inactive); in [16], 38.5 µM (inactive); in assay [17], 25.8 µM (inactive); in [18], 17.6 µM (inactive). For the same molecule, the GI50 in assay [19] was 15.6 µM (inactive); in assay [20], 13.1 µM (inactive).

Regarding `C[C@@H]1O[C@]2(O)[C@@H]3CCCN3S(=O)(=O)CCN2C1=O`, the GI50 in [1] is > 100 µM (inactive); in [2] it was > 100 µM (inactive); in [3], > 100 µM (inactive); in [4], > 100 µM (inactive); in assay [5], more than 100 µM; in assay [6], > 100 µM (inactive). Further, the GI50 in [7], in assay [8], in [9], in assay [10], in [11] and in [12] was > 100 µM (inactive) each time. Besides, the GI50 in assay [13], in [14], in assay [15], in [16], in assay [17] and in assay [18] was > 100 µM (inactive) throughout. For the same molecule, the GI50 in [19] and in [20] was > 100 µM (inactive) in each case.

As to `CN(C)C(=S)SCC(N)=O`, the GI50 in assay [1] is > 100 µM (inactive); in assay [2] it was > 100 µM (inactive); in assay [3], > 100 µM (inactive); in [4], > 100 µM (inactive); in assay [5] it was more than 100 µM; in assay [6], > 100 µM (inactive). For the same molecule, the GI50 in [7], in assay [8], in [9], in [10], in assay [11] and in assay [12] was > 100 µM (inactive) throughout. Further, the GI50 in assay [13] is > 100 µM (inactive); in assay [14], > 100 µM (inactive); in assay [15], 65.2 µM (inactive); in assay [16], > 100 µM (inactive); in assay [17], > 100 µM (inactive); in [18], < 0.01 µM (active). The GI50 in [19] and in assay [20] was > 100 µM (inactive) throughout.

For `COc1ccc(NC(=O)C(=O)NO)c(OC)c1`, the GI50 is 16 µM (inactive) in assay [1]; 19.6 µM (inactive) in assay [2]; 15.9 µM (inactive) in assay [3]; 18.5 µM (inactive) in assay [4]; 16.3 µM in assay [5]; 19.9 µM (inactive) in assay [6]. For the same molecule, the GI50 in [7] is 20.6 µM (inactive); in assay [8], 19.8 µM (inactive); in assay [9], 23.8 µM (inactive); in [10] it was 18.6 µM (inactive); in assay [11], 16.6 µM (inactive); in [12], 17.7 µM (inactive). For the same molecule, the GI50 was 15 µM (inactive) in [13]; 17.5 µM (inactive) in [14]; 18.5 µM (inactive) in assay [15]; 19.5 µM (inactive) in [16]; 20 µM (inactive) in [17]; 16.5 µM (inactive) in [18]. Besides, the figures for the GI50 in assay [19] and in [20] were 22.2 µM (inactive) and 14.8 µM (inactive), respectively.

For the molecule `CN=S(=O)(C[C@]1(O)CC2OC1C1OC(C)(C)OC21)c1ccccc1` (stereo not given in full), the GI50 in assay [1] was > 100 µM (inactive); in [2], > 100 µM (inactive); in assay [3], > 100 µM (inactive); in assay [4] it was > 100 µM (inactive); in [5], more than 100 µM; in assay [6] it was > 100 µM (inactive). Besides, the GI50 in assay [7], in assay [8], in [9], in assay [10], in assay [11] and in assay [12] was > 100 µM (inactive) throughout. In addition, the GI50 was > 100 µM (inactive) in assay [13]; > 100 µM (inactive) in assay [14]; > 100 µM (inactive) in [15]; > 100 µM (inactive) in [16]; > 100 µM (inactive) in [17]; 83 µM (inactive) in [18]. In addition, the GI50 in assay [19] and in assay [20] was > 100 µM (inactive) throughout.

`CCC(C)C1NC(=O)C(NC(=O)C(CC(C)C)N(C)C(=O)[C@@H]2CC(O)CN2)C(C)OC(=O)[C@H](Cc2ccc(OC)cc2)N(C)C(=O)[C@@H]2CCCN2C(=O)[C@H](CC(C)C)NC(=O)C(C)C(=O)[C@H](C(C)C)OC(=O)CC1O` (stereo not given in full) (H-[X10][ξNMeL][ξT][X11]LP[NMeY](Me); ester 3-C): the GI50 in [1] is 0.0121 µM (active); in assay [2], 0.0228 µM (active); in assay [3], 0.0382 µM (active); in assay [4] it was 0.00143 µM (active); in assay [5] it was 0.472 µM; in assay [6] it was 0.00931 µM (active). The GI50 in [7] was 0.0189 µM (active); in assay [8], < 0.001 µM (active); in assay [9] it was 0.00336 µM (active); in assay [10], 0.01 µM (active); in assay [11], 0.014 µM (active); in [12], 0.00594 µM (active). In addition, the GI50 in assay [13] was 0.0384 µM (active); in assay [14], < 0.001 µM (active); in assay [15], < 0.001 µM (active); in assay [16], 0.00321 µM (active); in [17], 0.00951 µM (active); in assay [18], 0.0106 µM (active). Moreover, the GI50 in assay [19] is 0.0152 µM (active); in assay [20], < 0.001 µM (active).

For `O=C1/C(=C/c2ccccc2)CCC/C1=C\c1ccccc1` [2,6-DIBENZYLIDENECYCLOHEXANONE], the GI50 is 12.8 µM (inactive) in assay [1]; 19.6 µM (inactive) in assay [2]; 15.7 µM (inactive) in [3]; 1.71 µM (inactive) in assay [4]; 8.07 µM in assay [5]; 21.7 µM (inactive) in assay [6]. The GI50 in assay [7] is 17.5 µM (inactive); in assay [8] it was 2.52 µM (inactive); in [9] it was 16.5 µM (inactive); in assay [10], 12.8 µM (inactive); in assay [11], 10.4 µM (inactive); in assay [12] it was 14.9 µM (inactive). Moreover, the GI50 in assay [13] was 8.26 µM (inactive); in [14] it was 16.6 µM (inactive); in [15], 13.2 µM (inactive); in assay [16], 21.4 µM (inactive); in assay [17] it was 16.1 µM (inactive); in assay [18], 20.2 µM (inactive). In addition, the GI50 in [19] is 17 µM (inactive); in assay [20], 13.2 µM (inactive).

The values above are taken from ChEMBL document CHEMBL1201862, “PubChem BioAssay data set” (2004).
